# Experimental data published in patent US8669360B2, “Methods of converting amorphous drug substance into crystalline form” (Boston Scientific Scimed, Inc., priority 2011, dated 2014).
# Legend:
# [1] = Approximate solubility of amorphous everolimus in solvents; type: physicochemical; settings: room temperature
# Description: Approximate solubilities of amorphous everolimus were determined by adding the drug gradually with stirring at room temperature to a fixed volume of the solvent until solid remained visible.
# [2] = Comparative aqueous solubility of amorphous and crystalline everolimus (FIG. 3); type: physicochemical; settings: aqueous solubility at body temperature (37° C.)
# Description: FIG. 3 is a graph showing the relative water solubilities of the amorphous and crystalline forms of everolimus.
smiles,measurement,setting,value
"CO[C@H]1C[C@@H]2CC[C@@H](C)[C@@](O)(O2)C(=O)C(=O)N2CCCC[C@H]2C(=O)O[C@H]([C@H](C)C[C@@H]2CC[C@@H](OCCO)[C@H](OC)C2)CC(=O)[C@H](C)/C=C(\C)[C@@H](O)[C@@H](OC)C(=O)[C@H](C)C[C@H](C)/C=C/C=C/C=C/1C [Amorphous Everolimus, 40-O-(2-Hydroxyethyl)rapamycin]",Amorphous Everolimus Solubilities,[1]; solvent ACN/water 3:2 v/v,~52 mg/mL
same,Amorphous Everolimus Solubilities,[1]; solvent ACN,~100 mg/mL
same,Amorphous Everolimus Solubilities,[1]; solvent Acetone,~100 mg/mL
same,Amorphous Everolimus Solubilities,[1]; solvent DCM,~46 mg/mL
same,Amorphous Everolimus Solubilities,[1]; solvent DMF/DCM w/w,~142 mg/mL
same,Amorphous Everolimus Solubilities,[1]; solvent DMF/EtOAc w/w,~119 mg/mL
same,Amorphous Everolimus Solubilities,[1]; solvent DMF/THF w/w,~112 mg/mL
same,Amorphous Everolimus Solubilities,[1]; solvent DMF,~49 mg/mL
same,Amorphous Everolimus Solubilities,[1]; solvent EtOH,~100 mg/mL
same,Amorphous Everolimus Solubilities,[1]; solvent IPA,~15 mg/mL
same,Amorphous Everolimus Solubilities,[1]; solvent MEK,~70 mg/mL
same,Amorphous Everolimus Solubilities,[1]; solvent MTBE,~62 mg/mL
same,Amorphous Everolimus Solubilities,[1]; solvent THF,~67 mg/mL
same,Amorphous Everolimus Solubilities,[1]; solvent ethyl acetate,~100 mg/mL
same,Amorphous Everolimus Solubilities,[1]; solvent m-xylene,~76 mg/mL
same,Amorphous Everolimus Solubilities,[1]; solvent n-heptane,~0.5 mg/mL
same,Amorphous Everolimus Solubilities,[1]; solvent p-dioxane,~58 mg/mL
same,Amorphous Everolimus Solubilities,[1]; solvent water,~0.1 mg/mL
"CO[C@H]1C[C@@H]2CC[C@@H](C)[C@@](O)(O2)C(=O)C(=O)N2CCCC[C@H]2C(=O)O[C@H]([C@H](C)C[C@@H]2CC[C@@H](OCCO)[C@H](OC)C2)CC(=O)[C@H](C)/C=C(\C)[C@@H](O)[C@@H](OC)C(=O)[C@H](C)C[C@H](C)/C=C/C=C/C=C/1C [crystalline everolimus, 40-O-(2-Hydroxyethyl)rapamycin]","Solubility of crystalline everolimus, times lower than that of amorphous everolimus",[2],about 25 times
